We go through nine compounds from ChEMBL document CHEMBL1125973, “Tricyclic quinoxalines as ligands for the strychnine-insensitive glycine site” (Bioorg Med Chem Lett, 1991).

SMILES strings stand for the structures.

The target of experiment [1] is Glutamate receptor ionotropic, NMDA 1 (Rattus norvegicus, UniProt P35439). Briefly: Compound was evaluated for its binding affinity towards strychnine - insensitive glycine site of NMDA receptor in presence of [3H]- Gly.
For experiment [2], the target named is Glutamate receptor ionotropic AMPA (Homo sapiens, UniProt P42261+P42262+P42263+P48058). Briefly: Compound was evaluated for its binding affinity towards Ionotropic glutamate receptor AMPA in presence of [3H]- AMPA. The class given is protein-complex assay.

By IC50 is commonly meant the midpoint of a concentration-inhibition curve.

For `Oc1nc2cc(Cl)c(Cl)cc2n2nnnc12`, the concentration for half-maximal inhibition (IC50) in experiment [1] was 77 µM; in experiment [2], greater than 100 µM.

As to `Oc1nc2cc(Cl)c(Cl)cc2n2cnnc12`, the IC50 in experiment [1] stood at 7 µM; in experiment [2], 8 µM.

For the compound `CCCCn1c(=O)c(=O)[nH]c2cc(Cl)c(Cl)cc21`, in experiment [1], the half-maximal inhibitory concentration (IC50) is greater than 100 µM.

Turning to `CCn1c(=O)c(=O)[nH]c2cc(Cl)c(Cl)cc21`, the IC50 in experiment [1] was found to be 96 µM; in experiment [2], 21 µM.

For the compound `O=c1[nH]c2ccccc2n2nnnc12`, the IC50 in experiment [1] was greater than 100 µM.

Consider `Oc1nc2cc(Cl)c(Cl)cc2n2ccnc12`, for which the concentration for half-maximal inhibition (IC50) in experiment [1] worked out at 6 µM; in experiment [2] it was 7 µM.

As for `Cn1c(=O)c(=O)[nH]c2cc(Cl)c(Cl)cc21`, the half-maximal inhibitory concentration (IC50) in experiment [1] turned out to be 17 µM; in experiment [2], 36 µM.

Take `O=c1[nH]c2ccccc2n2ccnc12`: the half-maximal inhibitory concentration (IC50) in experiment [1] was greater than 100 µM.

In the case of `Oc1nc2cc(Cl)c(Cl)cc2nc1O` [2,3-DIHYDROXY-6,7-DICHLOROQUINOXALINE], the values for the 50% inhibitory concentration (IC50) in experiment [1] and in experiment [2] were 4 µM and 27 µM, respectively.
